pIC50: −log10 of the molar value.
Experiments:
[1] = system: complex II+III (succinate cytochrome c oxidoreductase); assay: Complex II+III (succinate cytochrome c oxidoreductase) activity, spectrophotometric; format: biochemical; conditions: 100 μM drug; pig brain mitochondria; mean ± SD
Procedure: (§1) Pig brains were obtained from a slaughterhouse. Mitochondrial fraction isolation and purification from brain cortex were performed as previously described. Briefly, grey matter from pig brains was homogenized and crude mitochondrial fraction was isolated and then centrifuged on the sucrose gradient to obtain purified mitochondrial fraction. The freshly purified mitochondria were kept on ice until the assays were performed and were used for measurements of the mitochondrial oxygen consumption rate, measurements of ATP and ROS formation. Frozen mitochondria (stored at −70 °C) were used for the following enzyme activity measurements: ETC complexes, citrate synthase (CS) and malate dehydrogenase (MDH) activity.
(§2) Ultrasonication and incubation of mitochondria with the tested drugs for 30 min at 30 °C was performed before measurement with a corresponding drug-free control (DMSO) for every measurement. Mitochondrial enzymes activities were determined spectrophotometrically as absorbance using a GENESYS 180 UV-Vis Spectrophotometer (Thermo Fisher Scientific, Waltham, MA, USA).
The activity of complex II+III was measured with an antimycin A-sensitive cyt c reduction at 550 nm for 3 min, and it was initiated by the addition of cyt c. The medium consisted of KH2PO4, EDTA, KCN and rotenone. The final protein concentration was 50 µg/mL and final drugs concentrations 2.5, 5, 10, 50 and 100 µM. Drug-free control (DMSO) was used as a control for each measurement.

citrate synthase (CS) = target: T1, citrate synthase (CS) (Sus scrofa, UniProt P00889); assay: Citrate synthase activity; format: biochemical, pig; conditions: mean, N=3
T1 construct: Frozen mitochondria (stored at −70 °C) were used for the following enzyme activity measurements: ETC complexes, citrate synthase (CS) and malate dehydrogenase (MDH) activity; from tissue; host or cells: pig brain cortex, purified mitochondrial fraction (frozen, sonicated)
T1 sequence (P00889 28-464): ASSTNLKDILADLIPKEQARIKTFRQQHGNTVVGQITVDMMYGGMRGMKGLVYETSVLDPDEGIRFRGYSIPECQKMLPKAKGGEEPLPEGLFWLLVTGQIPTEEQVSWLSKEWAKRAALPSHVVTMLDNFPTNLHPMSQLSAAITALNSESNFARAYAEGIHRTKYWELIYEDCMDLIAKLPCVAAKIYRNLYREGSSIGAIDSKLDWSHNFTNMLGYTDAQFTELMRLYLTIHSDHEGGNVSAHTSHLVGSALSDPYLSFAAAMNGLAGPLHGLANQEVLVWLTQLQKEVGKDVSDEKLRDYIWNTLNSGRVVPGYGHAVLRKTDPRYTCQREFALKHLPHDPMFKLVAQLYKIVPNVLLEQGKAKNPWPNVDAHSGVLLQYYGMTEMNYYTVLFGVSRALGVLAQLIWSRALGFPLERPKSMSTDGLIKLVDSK
Procedure: as §1, §2
The reaction mixture consisted of Triton, Tris, 5,5′-dithiobis-(2-nitrobenzoic) acid and acetyl coenzyme A. The reaction was started by adding oxaloacetate and the CS activity was measured by detecting the color change of 5,5′-dithiobis-(2-nitrobenzoic) acid at 412 nm with a duration of 3 min. […]

[2] = system: total H2O2 content, pig brain mitochondria; assay: Hydrogen peroxide production, Amplex Red; format: biochemical; conditions: for total H2O2 content (relative to control = 100%): mean ± SD
Procedure: as §1
Hydrogen peroxide formation was determined using an Amplex Red Hydrogen Peroxide/Peroxidase Assay Kit. The reaction mixture consisted of 27 mM HEPES (pH 7.4), 114 mM sucrose, 100 mM KCl, 1.3 mM K2HPO4, 5 mM malate, 5 mM pyruvate, 1 µM rotenone, 10 mM succinate, 0.75 mM MgCl2, […], 15 µM Amplex Red and horseradish peroxidase 0.09 U/ML. […] The reaction was stopped by the addition of antimycin A. The standard curve for hydrogen peroxide was prepared using H2O2 standard.

[3] = system: complex I-linked respiration, pig brain mitochondria; assay: Complex I-linked mitochondrial respiration, high-resolution respirometry; format: biochemical; conditions: for effect on complex I-linked respiration (in words): titration 0.125–100 µM
Procedure: as §1
The mitochondrial oxygen consumption rate was measured by high-resolution respirometry using Oxygraph-2k (Oroboros Instruments Corp, Innsbruck, Austria). The final protein concentration was 0.05–0.14 mg/mL and the reaction mixture consisted of 2 mM malate, 5 mM pyruvate, 1.25 mM ADP and […] for complex I-linked respiration; 1.25 mM ADP, 0.75 mM MgCl2, 1 µM rotenone and 10 mM succinate for complex II-linked respiration. The following […] simultaneous measurements were assessed: a titration with the drug to the final drug concentrations of 0.125–100 µM in one chamber and a titration with a drug-free control (DMSO) in the second oxygraph chamber.
The respiration rate was expressed as pmol O2 consumed/second/mg of a protein.
The inhibition of respiration rate and MAO activity were analyzed by A four-parameter logistic regression with Prism software (GraphPad Software, San Diego, CA, USA) was used to analyze the respiratory rate inhibition and activity of MAO. […] The IC50 represents the drug concentration required to inhibit the difference between the baseline and the residual value of the mitochondrial oxygen flux or MAO activity by 50%.

[4] = system: complex I-linked ATP content, pig brain mitochondria; assay: Complex I-linked ATP content, bioluminescence; format: biochemical; conditions: for complex I-linked ATP content (relative to control = 100%): mean ± SD
Procedure: as §1
The following protocol has been modified and optimized. An ATP Bioluminescence Assay Kit CLS II was used to measure ATP content and kinetics. The luminescence was measured using FluoroMax-3 (Jobin Yvon, Edison, NJ, USA) at 562 nm. Standard curve for ATP determination was prepared from ATP standard in the range from 0 to 600 nM. Tested substances were used at final concentrations 10, 50 and 100 µM, with drug-free control (DMSO) for each measurement and the final protein concentration was 50 µg/mL.
Mitochondria were incubated for 30 min on ice with the MiR05 buffer, tested substances and mitochondria. Consequently, the substrate mix was added, consisting of 5 mM malate and 5 mM pyruvate (for complex I) or 5 mM succinate and 1 μM rotenone (for complex II), 60 μM ADP and 0.75 mM MgCl2·6H2O and incubated for 30 min in 30 °C. Reaction was stopped by heating vials at 100 °C for 2 min. Background luminescence was measured. In total, 230 µL of luciferase reagent was added and total ATP° content for complex I and complex II+III was determined by measuring the luminescence for 1 min. Drug-free control (DMSO) was part of each measurement.

[5] = system: complex IV (cytochrome c oxidase); assay: Complex IV (cytochrome c oxidase) activity, spectrophotometric; format: biochemical; conditions: pig brain mitochondria, mean ± SD
Procedure: as §1, §2
The medium consisted of KH2PO4, and the reaction was initiated by reduced cyt c. The decrease in absorbance was measured at 550 nm for 3 min. The final protein concentration was 10 µg/mL and final drugs concentrations 10, 50 and 100 µM. Drug-free control (DMSO) was used as a control for each measurement.

SMILES	complex II+III activity (relative to control = 100%) [1] [%]	CS (% of Control) (citrate synthase (CS); 10 μM drug)	CS (% of Control) (citrate synthase (CS); 100 μM drug)	total H2O2 content (relative to control = 100%) ([2]; 50 μM drug) [%]	total H2O2 content (relative to control = 100%) ([2]; 100 μM drug) [%]	complex I-linked respiration rate (relative to control = 100%) ([3]; 50 μM drug, mean ± SD) [%]	residual activity of complex I-linked respiration ([3]; four-parameter logistic fit, mean ± SEM) [%]	pIC50 ([3]; four-parameter logistic fit, mean ± SEM, listed as VOR)	effect on complex I-linked respiration (in words) [3]	complex I-linked ATP content (relative to control = 100%) ([4]; 100 μM drug) [%]	complex IV activity (relative to control = 100%) ([5]; 100 μM drug) [%]	effect on total H2O2 production (in words) ([2]; 10, 50 and 100 µM)	effect on complex I-linked ATP content (in words) ([4]; 10, 50 and 100 µM)	total H2O2 content (relative to control = 100%) ([2]; 10 μM drug) [%]	complex I-linked ATP content (relative to control = 100%) ([4]; 10 μM drug) [%]	complex IV activity (relative to control = 100%) ([5]; 10 μM drug) [%]	complex IV activity (relative to control = 100%) ([5]; 50 μM drug) [%]
Cc1ccc(Sc2ccccc2N2CCNCC2)c(C)c1 [vortioxetine]	43.9 ± 1.2	109.3 % of Control	* 96.9 % of Control	124.5 ± 2.5	85.4 ± 5.0	22.5 ± 7.1	4.7	4.98	full inhibitor of complex I-linked respiration	119.0 ± 10.6	9.3 ± 3.8	–	–	–	–	–	–
CNC1(c2ccccc2Cl)CCCCC1=O (stereo not drawn) [ketamine]	93.6 ± 2.6	107.3 % of Control	97.4 % of Control	–	–	–	–	–	inhibited complex I-linked respiration very weakly	–	3.9 ± 3.0	no statistically significant effect	no significant effect	–	–	–	–
COc1ccc2cccc(CCNC(C)=O)c2c1 [agomelatine]	94.9 ± 4.3	108.8 % of Control	95.7 % of Control	–	–	–	–	–	did not affect complex I-linked respiration at all	–	12.8 ± 4.1	–	–	130.1 ± 2.7	106.4 ± 4.0	45.0 ± 3.6	17.9 ± 3.4
